For one experiment, the target named is T1, muscle-type receptors (Homo sapiens, UniProt P02708+P07510+Q07001).
T1 construct: endogenous in cells
The experiment can be described thus: Determination of interaction with muscle receptors. As to conditions: percentage of the maximal activation induced by (S)-(-)-nicotine. In kind it is biochemical. Here is the method: Determination of Interaction with Muscle Receptors
The determination of the interaction of the compounds with muscle receptors was carried out in accordance with the techniques described in U.S. Pat. No. 5,597,919 to Dull et al. The maximal activation for individual compounds (Emax) was determined as a percentage of the maximal activation induced by (S)-(-)-nicotine. Reported Emax values represent the amount released relative to (S)-(-)-nicotine on a percentage basis.

Experiment [1] has as its target T2, CNS nicotinic receptors (Rattus norvegicus, UniProt P09483+P12390).
T2 construct: from tissue
In words: Determination of binding to relevant receptor sites. Here is the method:
Determination of Binding to Relevant Receptor Sites
Binding of the compounds to relevant receptor sites was determined in accordance with the techniques described in U.S. Pat. No. 5,597,919 to Dull et al. Inhibition constants (Ki values), reported in nM, were calculated from the IC50 values using the method of Cheng et al., Biochem, Pharmacol. 22:3099 (1973).

The test system of a further experiment is dopamine release. The experiment can be described thus: Determination of receptor activation/inhibition: dopamine release. In kind it is biochemical. As to conditions: for Emax (dopamine release): amount released relative to (S)-(-)-nicotine or TMA. The method, then: Determination of Receptor Activation/Inhibition and Dopamine Release
Dopamine release was measured using the techniques described in U.S. Pat. No. 5,597,919 to Dull et al. Release is expressed as a percentage of release obtained with a concentration of (S)-(-)-nicotine resulting in maximal effects. Reported EC50 values are expressed in nM, and Emax values represent the amount released relative to (S)-(-)-nicotine or tetramethylammonium ion (TMA), on a percentage basis.
(§1) Reported IC50 values are expressed in nM and represent the concentration resulting in 50% inhibition of agonist induced receptor activation. Emax values represent the amount released relative to (S)-(-)-nicotine on a percentage basis.

The target of the next experiment is T3, ganglia-type receptors (Rattus norvegicus, UniProt P04757+P12392).
T3 construct: endogenous in cells
In words: Determination of interaction with ganglion receptors. In kind it is biochemical. As to conditions: percentage of the maximal activation induced by (S)-(-)-nicotine. Here is the method: Determination of Interaction with Ganglion Receptors
The determination of the interaction of the compounds with ganglionic receptors was carried out in accordance with the techniques described in U.S. Pat. No. 5,597,919 to Dull et al. The maximal activation for individual compounds (Emax) was determined as a percentage of the maximal activation induced by (S)-(-)-nicotine. Reported Emax values represent the amount released relative to (S)-(-)-nicotine on a percentage basis.

In experiment [2] the target is T2, CNS nicotinic receptors. The experiment can be described thus: Isotopic rubidium ion release. As to conditions: for Emax: read-out: Emax (rubidium ion release). Type of experiment: biochemical. The method, then:
Isotopic rubidium release was measured using the techniques described in Bencherif et al., JPET, 279: 1413-1421 (1996). Reported EC50 values are expressed in nM, and Emax values represent the amount of rubidium ion released relative to 300 uM tetranmethylammonium ion, on a percentage basis.
as §1

Where [3] appears, read: calculated from IC50 values using the method of Cheng et al., read-out: Ki.
The mark [4] stands for this setting: read-out: EC50 (rubidium ion release).

pEC50, pIC50, pKi: −log10 of the molar value. Where two headings read alike, the source gives them in different places. Some results are limits rather than exact numbers.

T1 sequence (P02708 21-457): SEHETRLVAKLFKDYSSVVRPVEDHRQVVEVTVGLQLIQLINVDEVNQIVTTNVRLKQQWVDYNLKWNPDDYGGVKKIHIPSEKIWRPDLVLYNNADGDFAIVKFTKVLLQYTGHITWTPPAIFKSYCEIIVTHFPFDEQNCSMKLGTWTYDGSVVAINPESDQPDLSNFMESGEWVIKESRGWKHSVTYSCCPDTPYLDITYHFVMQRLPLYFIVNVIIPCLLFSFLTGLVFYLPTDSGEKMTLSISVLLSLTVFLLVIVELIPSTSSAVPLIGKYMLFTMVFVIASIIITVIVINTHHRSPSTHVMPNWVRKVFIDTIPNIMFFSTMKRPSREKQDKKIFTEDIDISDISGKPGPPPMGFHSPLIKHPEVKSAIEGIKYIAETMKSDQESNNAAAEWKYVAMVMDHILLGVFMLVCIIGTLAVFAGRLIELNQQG
T1 sequence (P11230 24-501, further chain): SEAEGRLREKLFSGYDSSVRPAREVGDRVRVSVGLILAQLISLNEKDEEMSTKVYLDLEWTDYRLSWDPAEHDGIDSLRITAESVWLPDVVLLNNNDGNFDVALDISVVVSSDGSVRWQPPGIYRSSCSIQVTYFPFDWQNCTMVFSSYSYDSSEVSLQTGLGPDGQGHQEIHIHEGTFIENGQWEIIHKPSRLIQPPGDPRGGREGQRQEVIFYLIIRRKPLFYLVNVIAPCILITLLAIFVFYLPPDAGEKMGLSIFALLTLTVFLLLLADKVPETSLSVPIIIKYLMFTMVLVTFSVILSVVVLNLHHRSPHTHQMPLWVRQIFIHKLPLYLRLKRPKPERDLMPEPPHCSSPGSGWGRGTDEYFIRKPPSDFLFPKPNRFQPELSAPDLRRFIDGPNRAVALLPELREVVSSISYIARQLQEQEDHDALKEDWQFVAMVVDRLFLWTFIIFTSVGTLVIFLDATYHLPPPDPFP
T1 sequence (P07510 23-517): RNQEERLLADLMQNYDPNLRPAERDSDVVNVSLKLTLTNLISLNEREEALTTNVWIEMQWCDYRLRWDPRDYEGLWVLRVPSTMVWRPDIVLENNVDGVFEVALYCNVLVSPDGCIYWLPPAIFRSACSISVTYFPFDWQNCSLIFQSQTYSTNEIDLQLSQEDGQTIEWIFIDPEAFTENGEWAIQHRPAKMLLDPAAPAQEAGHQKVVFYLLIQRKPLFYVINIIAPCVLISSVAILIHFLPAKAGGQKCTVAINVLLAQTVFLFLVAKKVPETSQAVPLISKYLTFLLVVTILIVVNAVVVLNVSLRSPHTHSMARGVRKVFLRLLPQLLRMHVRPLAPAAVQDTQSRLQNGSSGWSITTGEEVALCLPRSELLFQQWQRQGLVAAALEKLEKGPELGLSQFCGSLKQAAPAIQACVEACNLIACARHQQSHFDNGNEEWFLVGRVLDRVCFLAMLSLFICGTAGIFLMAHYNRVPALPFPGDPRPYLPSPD
T1 sequence (Q07001 22-517): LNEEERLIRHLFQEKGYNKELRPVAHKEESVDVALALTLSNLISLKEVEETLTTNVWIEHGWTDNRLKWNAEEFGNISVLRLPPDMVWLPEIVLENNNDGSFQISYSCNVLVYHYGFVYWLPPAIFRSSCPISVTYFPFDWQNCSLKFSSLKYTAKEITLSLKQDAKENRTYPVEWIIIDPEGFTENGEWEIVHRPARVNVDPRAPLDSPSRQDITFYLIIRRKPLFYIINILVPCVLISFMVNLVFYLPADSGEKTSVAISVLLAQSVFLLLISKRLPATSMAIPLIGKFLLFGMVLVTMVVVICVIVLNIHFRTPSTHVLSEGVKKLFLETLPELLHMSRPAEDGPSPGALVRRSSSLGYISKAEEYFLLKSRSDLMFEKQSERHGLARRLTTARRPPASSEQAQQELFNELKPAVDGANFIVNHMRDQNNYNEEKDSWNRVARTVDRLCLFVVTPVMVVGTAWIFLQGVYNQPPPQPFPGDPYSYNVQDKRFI
T2 sequence (P09483 31-630): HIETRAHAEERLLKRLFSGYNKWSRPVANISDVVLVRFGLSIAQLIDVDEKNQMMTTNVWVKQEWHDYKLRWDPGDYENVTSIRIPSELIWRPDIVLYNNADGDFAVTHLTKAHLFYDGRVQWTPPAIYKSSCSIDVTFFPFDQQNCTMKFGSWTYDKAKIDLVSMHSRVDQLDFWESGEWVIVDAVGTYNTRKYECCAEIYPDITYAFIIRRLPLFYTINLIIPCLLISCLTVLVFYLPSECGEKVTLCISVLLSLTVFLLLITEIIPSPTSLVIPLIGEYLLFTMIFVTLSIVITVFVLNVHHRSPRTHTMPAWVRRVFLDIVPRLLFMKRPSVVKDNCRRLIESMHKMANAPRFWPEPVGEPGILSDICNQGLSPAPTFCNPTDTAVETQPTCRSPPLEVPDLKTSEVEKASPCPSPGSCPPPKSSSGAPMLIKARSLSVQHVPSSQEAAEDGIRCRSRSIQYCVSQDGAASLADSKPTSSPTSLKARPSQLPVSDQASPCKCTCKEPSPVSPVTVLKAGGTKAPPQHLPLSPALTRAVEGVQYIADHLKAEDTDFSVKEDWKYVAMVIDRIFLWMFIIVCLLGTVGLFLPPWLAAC
T2 sequence (P12390 25-500): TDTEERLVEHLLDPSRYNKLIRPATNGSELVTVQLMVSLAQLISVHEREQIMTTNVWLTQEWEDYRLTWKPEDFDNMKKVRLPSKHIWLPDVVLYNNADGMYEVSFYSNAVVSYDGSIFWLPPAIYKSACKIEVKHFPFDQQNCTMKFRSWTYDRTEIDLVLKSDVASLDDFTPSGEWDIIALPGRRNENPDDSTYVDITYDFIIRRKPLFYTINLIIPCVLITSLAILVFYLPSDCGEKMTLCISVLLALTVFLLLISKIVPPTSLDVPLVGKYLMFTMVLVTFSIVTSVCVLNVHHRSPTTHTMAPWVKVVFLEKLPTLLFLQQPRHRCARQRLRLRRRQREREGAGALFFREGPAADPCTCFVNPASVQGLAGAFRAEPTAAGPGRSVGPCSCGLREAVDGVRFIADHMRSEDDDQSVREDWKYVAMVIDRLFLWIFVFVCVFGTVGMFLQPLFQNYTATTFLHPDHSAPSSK
T3 sequence (P04757 26-499): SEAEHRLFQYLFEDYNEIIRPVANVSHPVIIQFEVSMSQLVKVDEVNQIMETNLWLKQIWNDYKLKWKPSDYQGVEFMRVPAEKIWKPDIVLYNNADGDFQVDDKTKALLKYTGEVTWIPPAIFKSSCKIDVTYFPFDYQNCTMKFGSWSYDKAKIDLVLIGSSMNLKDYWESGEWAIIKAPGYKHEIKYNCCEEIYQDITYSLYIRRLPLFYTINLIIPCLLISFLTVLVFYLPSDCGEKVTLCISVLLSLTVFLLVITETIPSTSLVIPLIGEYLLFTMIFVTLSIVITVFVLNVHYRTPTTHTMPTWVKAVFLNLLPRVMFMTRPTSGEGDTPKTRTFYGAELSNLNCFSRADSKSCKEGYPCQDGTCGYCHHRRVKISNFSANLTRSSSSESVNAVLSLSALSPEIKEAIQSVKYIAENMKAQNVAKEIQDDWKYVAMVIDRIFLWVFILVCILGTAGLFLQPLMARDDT
T3 sequence (P12392 21-495): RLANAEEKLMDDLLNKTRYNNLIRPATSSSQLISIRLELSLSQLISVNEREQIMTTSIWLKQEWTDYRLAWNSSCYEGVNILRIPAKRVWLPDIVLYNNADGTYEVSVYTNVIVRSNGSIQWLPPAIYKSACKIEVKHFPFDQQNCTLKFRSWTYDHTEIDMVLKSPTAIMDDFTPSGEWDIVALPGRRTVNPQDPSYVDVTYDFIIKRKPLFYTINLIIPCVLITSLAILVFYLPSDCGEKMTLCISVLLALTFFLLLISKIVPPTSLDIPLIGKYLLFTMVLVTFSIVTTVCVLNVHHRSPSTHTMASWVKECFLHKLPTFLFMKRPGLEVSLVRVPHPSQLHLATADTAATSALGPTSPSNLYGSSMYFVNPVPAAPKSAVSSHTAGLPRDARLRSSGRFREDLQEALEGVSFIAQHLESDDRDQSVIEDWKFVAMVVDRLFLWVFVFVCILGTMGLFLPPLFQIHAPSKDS

Usually Emax stands for the size of the effect at its maximum, as opposed to the concentration needed. Broadly, the pKi is the negative decadic logarithm of the Ki, by convention in mol/L. Regarding `c1cncc(C2C3CC4CC(C3)CN2C4)c1` (stereo not drawn) [Sample No. 1, 1-aza-2-(3-pyridyl)-tricyclo[3.3.1.1^3,7]decane], the Emax on muscle-type receptors amounted to 21%; on ganglia-type receptors, 27%. Also, at CNS nicotinic receptors [1] (setting [3]), the negative-log Ki (pKi) is 7.82. Also, the “Emax (dopamine release)” value in the experiment on dopamine release is 0%.

The term pEC50 denotes −log10 of the EC50, conventionally taken in molar units. As to `Brc1cncc(C2C3CC4CC(C3)CN2C4)c1` (stereo not drawn) [Sample No. 2, 1-aza-2-[5-bromo(3-pyridyl)]tricyclo[3.3.1.1^3,7]decane], the Emax on muscle-type receptors was found to be 32%; on CNS nicotinic receptors [2] it was 0%; on ganglia-type receptors it was 50%. Further, the pKi at CNS nicotinic receptors [1] was 8.70. Moreover, the negative-log EC50 (pEC50) on CNS nicotinic receptors [2] (setting [4]) is under 4.00. Besides, in the experiment on dopamine release, the “Emax (dopamine release)” value is listed as 0%.

Consider `Cl.Cl.Cl.Nc1cncc(C2C3CC4CC(C3)CN2C4)c1` (stereo not drawn) [Sample No. 3, 1-aza-2-[5-amino-(3-pyridyl)]tricyclo[3.3.1.1^3,7]decane trihydrochloride], for which the maximal response (Emax) at muscle-type receptors is 75%; on CNS nicotinic receptors [2], 0%; on ganglia-type receptors, 17%. In addition, the pKi on CNS nicotinic receptors [1] (setting [3]) is 7.36. The compound further gave a negative-log EC50 (pEC50) at CNS nicotinic receptors [2] of under 4.00. Also, the “Emax (dopamine release)” value in the experiment with dopamine release stood at 0%.

Usually pIC50 stands for the negative decadic logarithm of the IC50, by convention in mol/L. Turning to `CCOc1cncc(C2C3CC4CC(C3)CN2C4)c1` (stereo not drawn) [Sample No. 4, 1-aza-2-[5-ethoxy-(3-pyridyl)]-tricyclo-[3.3.1.1^3,7]decane], the results for the Emax at muscle-type receptors, at CNS nicotinic receptors [2] and at ganglia-type receptors were 22%, 0% and 0%, respectively. The same compound showed a pKi on CNS nicotinic receptors [1] of 9.00. The negative logarithm of the IC50 (pIC50) was 6.20 at CNS nicotinic receptors [2] and 6.07 on dopamine release (50% inhibition of agonist induced receptor activation). Also, the pEC50 at CNS nicotinic receptors [2] (setting [4]) was under 4.00. Further, the “Emax (dopamine release)” value in the experiment on dopamine release is given as 0%.

On to `CC(C)Oc1cncc(C2C3CC4CC(C3)CN2C4)c1` (stereo not drawn) [Sample No. 5, 1-aza-2-[5-isopropoxy-(3-pyridyl)]tricyclo[3.3.1.1^3,7]decane], for which the Emax stood at 114% at muscle-type receptors, 0% at CNS nicotinic receptors [2] and 7% on ganglia-type receptors. The compound further had a pKi on CNS nicotinic receptors [1] of 7.62. Moreover, the pEC50 on CNS nicotinic receptors [2] (setting [4]) is under 4.00. Further, in the experiment with dopamine release, the “Emax (dopamine release)” value was 0%.
